Source: US20040009464A1, “Methods for identifying compounds for inhibition of neoplastic lesions, and pharmacetical compositions containing such compounds” (priority 1998, published 2004)
Where a name gives a salt, the structure may show the parent alone. Read-outs that look alike come from different tables or passages of the source.

Assays:
[1] = rat, in vivo
NCI-H322M = assay: Growth inhibition, neutral red assay, NCI-H322M; type: cell-based, human; settings: free base, five days
Method: (§1) Compound I's activity is not confined to activity against colon cancer cell lines or animal models of colon cancer. It has a broad range of anti-neoplastic effects in various neoplastic cell lines. Various types of human cancer cell lines were propagated under sterile conditions in RPMI 1640 medium with 10% fetal bovine serum, […] L-glutamine and sodium bicarbonate. To determine growth inhibitory effects of Compound I, cells were seeded in 96-well plates at a density of 1000 cells per well. Twenty-four hours after plating, the cells were dosed with various concentrations of the free base of Compound I solubilized in DMSO (final concentration 0.1%). The effect of the drug on tumor cell growth was determined using the neutral red cytotoxicity assay following five days of continuous treatment. Neutral red is a dye that is selectively taken up by viable cells by an ATP-dependent transport mechanism.

28-day study in rats = type: in vivo
[2] = tested on: PrEC primary prostate epithelial cells derived from normal prostate; assay: Histone-associated DNA fragmentation in PrEC cells; type: cell-based; settings: 50 μM, up to 4 days
Method: (§2) The androgen-sensitive prostate tumor cell line, LNCAP (from ATCC (Rockville, Md.)) was propagated under standard conditions using […] medium containing 5% fetal calve serum and 2 mM glutamine. Primary prostate epithelial cell cultures (PrEC) derived from normal prostate (from Clonetics Inc. (San Diego, Calif.)) were grown under the same conditions as the tumor cell line except a serum-free medium optimized for the growth of such cultures was used (Clonetics Inc). For the experiments, LNCaP or PrEC cells were seeded in 96 well plates at a density of 10,000 cells per well. After 24 hours, the cells were treated with either vehicle (0.1% DMSO) or 50 μM Compound I (freebase) solubilized in DMSO. After various drug treatment times (4, 24, 48, 72, or 99 hours) the cells were lysed and processed for measurement of histone-associated DNA as an indicator of apoptotic cell death (see, Piazza et al., Cancer Research 57: 2452-2459, 1997).
(§3) This is in marked contrast to conventional chemotherapeutics that induce apoptosis or necrosis in rapidly growing normal and neoplastic cells alike.

PC-3 = assay: Growth inhibition, neutral red assay, PC-3; type: cell-based, human; settings: free base, five days
Method: as §1

[3] = dog, in vivo
[4] = Seven-day dose-range finding study in rats; type: in vivo; settings: seven days
MDA-MB-231 = assay: Growth inhibition, neutral red assay, MDA-MB-231; type: cell-based, human; settings: free base, five days
Method: as §1

[5] = tested on: LNCaP prostate tumor cell line; assay: Histone-associated DNA fragmentation in LNCaP cells; type: cell-based; settings: 50 μM free base, up to 4 days
Method: as §2, §3

[6] = Single, escalating dose human safety study; type: in vivo; settings: oral
[7] = tested on: aberrant crypt foci (AOM-induced carcinogenesis); assay: Azoxymethane-induced aberrant crypt foci (ACF) model in rats; type: in vivo, male Fisher 344 rats; settings: for Mean ACF/colon (+SE): free base, 5 weeks
Method: The growth inhibition IC50 value obtained for Compound I was 0.7 μM in the SW-480 cell line. […] This established rodent model of azoxymethane (“AOM”)-induced carcinogenesis was used to assess the effects of Compound I (free base and salt) on colon cancer development in vivo. ACF are precursors to colonic tumors, and ACF inhibition is predictive of chemo-preventive efficacy.
In the rats in this experiment, ACF initiation was achieved by two consecutive weekly injections of the carcinogen. Compound I was administered one week prior to ACF initiation and for the duration of the experiment. ACFs were scored after 5 weeks of treatment. Compound I was administered orally to male Fisher 344 rats in the rat chow. Daily food consumption (mg/kg body weight) varied over the course of the study, and therefore Compound I dose was expressed a grams per kg of diet to provide a basis of comparison between doses. […] The experimental groups gained less weight than the controls, which was indicative of bloavailability. However, the weight differences were less than 10% and not considered to affect ACF formation.
The free base of Compound I inhibited ACF formation as measured by a reduction of crypts per colon. With the exception of the low dose group (only 0.5 g/kg diet), the differences between treatment and control groups were substantial, and statistically significant in the case of the 1.0 and 2.0 g/kg diet group.

For CC1=C(CC(=O)NCc2ccccc2)c2cc(F)ccc2/C1=C\c1ccncc1 [Compound I, (Z)-5-fluoro-2-methyl-(4-pyridylidene)-3-(N-benzyl)indenylacetamide hydrochloride], the “toxicity findings” value ([1]; ip, 1000 mg/kg) was “reduced body weight gain, with mesenteric adhesions seen in some animals”, the “body weight gain” value ([1]; po, 4000 mg/kg) was “body weight gains were slightly reduced” and the “GI90 μM NCI-H322M” value (NCI-H322M) was 13.2 µM. The “organ weights” value (28-day study in rats; 28 days, 2000 mg/kg/day) was “statistically significant increase in liver weights”, the “clinical observations” value (28-day study in rats; 28 days, 50, 500 and 2000 mg/kg/day) was “no abnormal clinical observations” and the “DNA fragmentation” value [2] was “did not affect DNA fragmentation”. The “GI90 μM PC-3” value (PC-3) was 82.5 µM, the “signs of toxicity” value ([3]; 1000 mg/kg) was “no signs of toxicity” and the “drug-related effects” value ([3]; 1000 mg/kg/day) was “At no time in either dosing phase were any obvious signs of drug-related effects observed”. For the same compound, the “toxicity findings” value ([4]; 50 mg/kg/day) was “no observable signs of toxicity”, the “toxicity findings” value ([4]; 500 mg/kg/day) was “an increase in absolute and relative liver weights in female rats” and the “toxicity findings” value ([4]; 2000 mg/kg/day) was “labored breathing and/or abnormal respiratory sounds, decreased weights gains and food consumption in male rats, and increased liver weights in female rats”. The “GI90 μM MDA-MB-231” value (MDA-MB-231) was 77.6 µM, the “histone-associated fragmented DNA” value [5] was “significant increase in fragmented DNA” and the “side effects” value [6] was “no significant side effects at any dose”. The “Mean ACF/colon (+SE)” value ([7]; 0.5 g/kg diet) was 149 ± 14 ACF/colon, the “Mean ACF/colon (+SE)” value ([7]; 1 g/kg diet) was 111 ± 9 ACF/colon and the “Mean ACF/colon (+SE)” value ([7]; 1.5 g/kg diet) was 132 ± 4 ACF/colon. For the same compound, the “Mean ACF/colon (+SE)” value ([7]; 2.0 g/kg diet) was 107 ± 15 ACF/colon and the “body weight difference versus controls” value ([7]; rats, compound in chow) was “less than 10%”.
